Measured values from patent publication US9358267B2, “High purity lipopeptides” (Cubist Pharmaceuticals LLC, priority 2000, dated 2016).

Key:
[1] = critical micellar concentration (cmc) of daptomycin; assay type: physicochemical
Text: Micelle formation causes changes in several bulk physical properties of a solution including changes in osmotic pressure, turbidity, electrical conductance, surface tension, co-ion and counterion activities (in the case of ionic, amphipathic molecules), refractive index, UV and NMR spectra, partial molar volume, viscosity, diffusion coefficient and dye solubilization. The cmc can be determined by measuring one or more of these micelle-dependent physical properties as a function of concentration of the amphipathic molecule. The size and shape of micelles can be determined by dynamic laser light scattering, ultracentrifugation, viscosity and/or low-angle X-ray scattering experiments. Micelles can also exist in liquid crystal phases.
In another embodiment of the invention, the pH of a solution comprising a lipopeptide is manipulated to influence the cmc of the lipopeptide. In a preferred embodiment, the lipopeptide is daptomycin or a daptomycin-related molecule, such as those described supra. In an even more preferred embodiment, the lipopeptide is daptomycin. In one embodiment, the pH is manipulated so that the concentration of a lipopeptide is higher than the cmc at one pH and is lower than the cmc at another pH. For instance, for daptomycin, the cmc at pH 4.0 in water at a temperature of 20-25° C. was much lower than at pH 6.0 or 7.5. […]

[2] = size of daptomycin micelles by light scatter (Zetasizer); assay type: physicochemical; conditions: for micelle size: 1 mg/mL, pH approximately 4.0 in water, light scatter
Experimental: The daptomycin micelles have an average size of 5.4 nm (54 A).
Daptomycin micelles were produced using daptomycin at a concentration of 1.0 mg/mL in water at pH 4.0 at 25° C. The size of a daptomycin micelle was measured using a Zetasizer™ (Malvern Instruments, Model 3000 HS). The count rate of 36.3, the cell type was a capillary cell, the detection angle (deg) was 90°, and the wavelength (nm) was 633.

[3] = test system: gram-positive organisms (susceptible and resistant strains); assay: in vitro antibacterial activity (MIC); assay type: cell-based
Experimental: In addition, the minimum inhibitory concentration (MIC) value for daptomycin against susceptible strains is typically 4-fold lower than that of vancomycin. […] Thus, in a preferred embodiment, purified daptomycin, lipopeptide antibiotic, or pharmaceutical compositions thereof are administered according to the methods of this invention to a patient in need of rapidly acting antibiotic therapy.

## CCCCCCCCCC(=O)N[C@@H](Cc1c[nH]c2ccccc12)C(=O)N[C@H](CC(N)=O)C(=O)N[C@@H](CC(=O)O)C(=O)N[C@@H]1C(=O)NCC(=O)N[C@@H](CCCN)C(=O)N[C@@H](CC(=O)O)C(=O)N[C@H](C)C(=O)N[C@@H](CC(=O)O)C(=O)NCC(=O)N[C@H](CO)C(=O)N[C@@H]([C@H](C)CC(=O)O)C(=O)N[C@@H](CC(=O)c2ccccc2N)C(=O)O[C@@H]1C [daptomycin]
[1]; 150 mg/mL daptomycin, pH 6.5, 150 mM to 300 mM NaCl, 4° C.
  aggregation state (monomeric or micellar): monomeric
[1]; pH 4.0 in water, 20-25° C.
  critical micellar concentration (cmc): approximately 400 μg/mL
[2]; 1.0 mg/mL in water, pH 4.0, 25° C., Zetasizer
  diameter of the micelle: 54 A
[2]
  micelle size: 5.4 nm
[2]; listed as Daptomycin
  micelle size: approximately 5.4 nm
[3]; in vitro experiments
  antibacterial activity against classically resistant strains relative to classically susceptible strains: comparable
[3]; susceptible strains
  MIC, fold lower than that of vancomycin: ~4 fold
